Common to all, as to type: in vivo
The subject of assay [1] is Japanese bulrush (Scirpus juncoides Roxb.). In words: Test Example 1: herbicidal effect by soil application to paddy field. The settings on record: paddy field soil application; active ingredient 1,000 g per 1 hectare; wettable powder added dropwise to water surface the day after sowing; examined on the 21st day after application. The essentials:
(§1)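 Plants were sown in flooded (3 cm) paddy soil and evaluated for herbicidal effect 21 days after soil application in a greenhouse.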

Assay [2] relates to early watergrass (Echinochloa oryzicola Vasing). The description is as above. The conditions noted are these: paddy field soil application; active ingredient 1,000 g per 1 hectare; wettable powder added dropwise to water surface the day after sowing; examined on the 21st day after application. The gist of the method:
as §1

Assay [3] relates to heartshape false pickerelweed (Monochoria vaginalis (Burm.f.) C.Presl). The description is as above. The settings on record: paddy field soil application; active ingredient 1,000 g per 1 hectare; wettable powder added dropwise to water surface the day after sowing; examined on the 21st day after application. The gist of the method:
as §1

For assay [4], the system named is barnyardgrass (Echinochloa crus-galli (L.) P. Beauv. var. crus-galli). In words: Test Example 3: herbicidal effect by application to upland field (foliage treatment). The settings on record: 14th day after application; for herbicidal effect (index), Barnyardgrass: foliage treatment, plants grown two weeks, 1,000 g active ingredient per hectare; for herbicidal effect, Barnyardgrass: foliage treatment, 1,000 g active ingredient per 1 hectare, greenhouse. How it is done: (§2) [table] Test Example 3 Test on Herbicidal Effect by Application to Upland Field In a 80 cm2 plastic pot, field soil was filled. Seeds of barnyardgrass (Echinochloa crus-galli (L.) P. Beauv. var. crus-galli), green foxtail (Setaria viridis (L.) P. Beauv.), velvetleaf (Abutilon theophrasti medicus), and slender amaranth (Amaranthus viridis L.) were sown and allowed to grow for two weeks in a greenhouse. Thereafter, the wettable powder prepared according to Formulation Example 1 was diluted in water and a 1,000 liter equivalent amount per 1 hectare so that the active ingredient becomes 1,000 g per 1 hectare was sprayed using a small sprayer from a top of the plants through its entire body for foliage treatment. Then, on the 14th day after the application to the plants grew in a greenhouse, the herbicidal effect was examined in accordance with a standard shown in Table 34.

Assay [5] deals with green foxtail (Setaria viridis (L.) P. Beauv.). The assay is described as above. The conditions noted are these: 14th day after application; for herbicidal effect (index), Green Foxtail: foliage treatment, plants grown two weeks, 1,000 g active ingredient per hectare; for herbicidal effect, Green Foxtail: foliage treatment, 1,000 g active ingredient per 1 hectare, greenhouse. As to the method:
as §2

The subject of assay [6] is slender amaranth (Amaranthus viridis L.). Described as above. The settings on record: 14th day after application; for herbicidal effect (index), Slender Amaranth: foliage treatment, plants grown two weeks, 1,000 g active ingredient per hectare; for herbicidal effect, Slender Amaranth: foliage treatment, 1,000 g active ingredient per 1 hectare, greenhouse. How it is done:
as §2

Assay [7] relates to velvetleaf (Abutilon theophrasti medicus). The assay is described as above. The settings on record: 14th day after application; for herbicidal effect (index), Velvetleaf: foliage treatment, plants grown two weeks, 1,000 g active ingredient per hectare; for herbicidal effect, Velvetleaf: foliage treatment, 1,000 g active ingredient per 1 hectare, greenhouse. As to the method:
as §2

With `CC(CCn1c(C(F)(F)F)ccc(C(=O)C2=C(O)CCCC2=O)c1=O)=C(F)F` [I-27], the “herbicidal effect, Scirpus juncoides Roxb.” value in assay [1] was 5 (90% or more of herbicidal effect and crop phytotoxicity). The “herbicidal effect, Echinochloa oryzicola Vasing” value in assay [2] was 5 (90% or more of herbicidal effect and crop phytotoxicity). In assay [3], the “herbicidal effect, Monochoria vaginalis (Burm. f.) C. Presl” value (from here on “herbicidal effect, Monochoria vaginalis”) is 5 (90% or more of herbicidal effect and crop phytotoxicity). Further, the “herbicidal effect (index), Barnyardgrass” value in assay [4] is 4 (70 to less than 90% of herbicidal effect and crop phytotoxicity). Also, the “herbicidal effect (index), Green Foxtail” value in assay [5] is 3 (50 to less than 70% of herbicidal effect and crop phytotoxicity). The “herbicidal effect (index), Slender Amaranth” value in assay [6] is 5 (90% or more of herbicidal effect and crop phytotoxicity). Moreover, the “herbicidal effect (index), Velvetleaf” value in assay [7] was 5 (90% or more of herbicidal effect and crop phytotoxicity).

Turning to `CC(CCCCn1c(C(F)(F)F)ccc(C(=O)C2=C(O)CCCC2=O)c1=O)=C(F)F` [I-28], the “herbicidal effect, Scirpus juncoides Roxb.” value in assay [1] is 4 (70 to less than 90% of herbicidal effect and crop phytotoxicity). The “herbicidal effect, Echinochloa oryzicola Vasing” value in assay [2] is 5 (90% or more of herbicidal effect and crop phytotoxicity). For the same compound, the “herbicidal effect, Monochoria vaginalis” value in assay [3] was 5 (90% or more of herbicidal effect and crop phytotoxicity). Further, in assay [4], the “herbicidal effect (index), Barnyardgrass” value is 5 (90% or more of herbicidal effect and crop phytotoxicity). For the same compound, the “herbicidal effect (index), Green Foxtail” value in assay [5] is 5 (90% or more of herbicidal effect and crop phytotoxicity). Moreover, the “herbicidal effect (index), Slender Amaranth” value in assay [6] was 5 (90% or more of herbicidal effect and crop phytotoxicity). For the same compound, the “herbicidal effect (index), Velvetleaf” value in assay [7] was 5 (90% or more of herbicidal effect and crop phytotoxicity).

Consider `COCCCn1c(C(F)(F)F)ccc(C(=O)C2=C(O)CCCC2=O)c1=O` [I-42], for which the “herbicidal effect, Scirpus juncoides Roxb.” value in assay [1] is 5 (90% or more of herbicidal effect and crop phytotoxicity). The “herbicidal effect, Echinochloa oryzicola Vasing” value in assay [2] was 5 (90% or more of herbicidal effect and crop phytotoxicity). Further, the “herbicidal effect, Monochoria vaginalis” value in assay [3] is 5 (90% or more of herbicidal effect and crop phytotoxicity). Further, the “herbicidal effect (index), Barnyardgrass” value in assay [4] is 5 (90% or more of herbicidal effect and crop phytotoxicity). In addition, the “herbicidal effect (index), Green Foxtail” value in assay [5] was 5 (90% or more of herbicidal effect and crop phytotoxicity). The “herbicidal effect (index), Slender Amaranth” value in assay [6] is 5 (90% or more of herbicidal effect and crop phytotoxicity). In assay [7], the “herbicidal effect (index), Velvetleaf” value is 5 (90% or more of herbicidal effect and crop phytotoxicity).

With `CC(Cn1c(C(F)(F)F)ccc(C(=O)C2=C(O)CCCC2=O)c1=O)OCc1ccccc1` (centres unmarked) [I-43], the “herbicidal effect, Scirpus juncoides Roxb.” value in assay [1] was 5 (90% or more of herbicidal effect and crop phytotoxicity). For the same compound, the “herbicidal effect, Echinochloa oryzicola Vasing” value in assay [2] is 5 (90% or more of herbicidal effect and crop phytotoxicity). Besides, the “herbicidal effect, Monochoria vaginalis” value in assay [3] was 4 (70 to less than 90% of herbicidal effect and crop phytotoxicity). For the same compound, the “herbicidal effect (index), Barnyardgrass” value in assay [4] is 5 (90% or more of herbicidal effect and crop phytotoxicity). The “herbicidal effect (index), Green Foxtail” value in assay [5] is 4 (70 to less than 90% of herbicidal effect and crop phytotoxicity). In addition, in assay [6], the “herbicidal effect (index), Slender Amaranth” value was 5 (90% or more of herbicidal effect and crop phytotoxicity). For the same compound, the “herbicidal effect (index), Velvetleaf” value in assay [7] was 5 (90% or more of herbicidal effect and crop phytotoxicity).

Take `CS(=O)(=O)Cn1c(C(F)(F)F)ccc(C(=O)C2=C(O)CCCC2=O)c1=O` [I-47]: the “herbicidal effect, Scirpus juncoides Roxb.” value in assay [1] was 5 (90% or more of herbicidal effect and crop phytotoxicity). The “herbicidal effect, Echinochloa oryzicola Vasing” value in assay [2] is 5 (90% or more of herbicidal effect and crop phytotoxicity). Moreover, the “herbicidal effect, Monochoria vaginalis” value in assay [3] is 5 (90% or more of herbicidal effect and crop phytotoxicity). In assay [4], the “herbicidal effect (index), Barnyardgrass” value is 5 (90% or more of herbicidal effect and crop phytotoxicity). Moreover, the “herbicidal effect (index), Green Foxtail” value in assay [5] is 4 (70 to less than 90% of herbicidal effect and crop phytotoxicity). In addition, the “herbicidal effect (index), Slender Amaranth” value in assay [6] is 5 (90% or more of herbicidal effect and crop phytotoxicity). In addition, in assay [7], the “herbicidal effect (index), Velvetleaf” value is 5 (90% or more of herbicidal effect and crop phytotoxicity).

Consider `O=C1CCCC(O)=C1C(=O)c1ccc(C(F)(F)F)n(CSC2CCCCC2)c1=O` [I-61], for which, in assay [1], the “herbicidal effect, Scirpus juncoides Roxb.” value was 4 (70 to less than 90% of herbicidal effect and crop phytotoxicity). Also, the “herbicidal effect, Echinochloa oryzicola Vasing” value in assay [2] was 5 (90% or more of herbicidal effect and crop phytotoxicity). The “herbicidal effect, Monochoria vaginalis” value in assay [3] was 5 (90% or more of herbicidal effect and crop phytotoxicity). Besides, the “herbicidal effect (index), Barnyardgrass” value in assay [4] is 5 (90% or more of herbicidal effect and crop phytotoxicity). The “herbicidal effect (index), Green Foxtail” value in assay [5] was 4 (70 to less than 90% of herbicidal effect and crop phytotoxicity). In addition, the “herbicidal effect (index), Slender Amaranth” value in assay [6] was 5 (90% or more of herbicidal effect and crop phytotoxicity). Moreover, the “herbicidal effect (index), Velvetleaf” value in assay [7] is 5 (90% or more of herbicidal effect and crop phytotoxicity).

`CSCCCn1c(C(F)(F)F)ccc(C(=O)C2=C(O)CCCC2=O)c1=O` [I-69]: in assay [1], the “herbicidal effect, Scirpus juncoides Roxb.” value is 5 (90% or more of herbicidal effect and crop phytotoxicity). In addition, in assay [2], the “herbicidal effect, Echinochloa oryzicola Vasing” value is 5 (90% or more of herbicidal effect and crop phytotoxicity). The “herbicidal effect, Monochoria vaginalis” value in assay [3] was 5 (90% or more of herbicidal effect and crop phytotoxicity). In addition, in assay [4], the “herbicidal effect (index), Barnyardgrass” value was 5 (90% or more of herbicidal effect and crop phytotoxicity). The “herbicidal effect (index), Green Foxtail” value in assay [5] was 5 (90% or more of herbicidal effect and crop phytotoxicity). In assay [6], the “herbicidal effect (index), Slender Amaranth” value is 5 (90% or more of herbicidal effect and crop phytotoxicity). Further, in assay [7], the “herbicidal effect (index), Velvetleaf” value was 5 (90% or more of herbicidal effect and crop phytotoxicity).

For `COc1ccc(-n2c(C(F)(F)F)ccc(C(=O)C3=C(O)CCCC3=O)c2=O)cc1` [I-78], the “herbicidal effect, Scirpus juncoides Roxb.” value in assay [1] is 5 (90% or more of herbicidal effect and crop phytotoxicity). Further, the “herbicidal effect, Echinochloa oryzicola Vasing” value in assay [2] was 5 (90% or more of herbicidal effect and crop phytotoxicity). For the same compound, the “herbicidal effect, Monochoria vaginalis” value in assay [3] was 5 (90% or more of herbicidal effect and crop phytotoxicity). Also, in assay [4], the “herbicidal effect (index), Barnyardgrass” value was 5 (90% or more of herbicidal effect and crop phytotoxicity). In addition, the “herbicidal effect (index), Green Foxtail” value in assay [5] is 5 (90% or more of herbicidal effect and crop phytotoxicity). Also, the “herbicidal effect (index), Slender Amaranth” value in assay [6] is 5 (90% or more of herbicidal effect and crop phytotoxicity). For the same compound, in assay [7], the “herbicidal effect (index), Velvetleaf” value is 5 (90% or more of herbicidal effect and crop phytotoxicity).

As to `O=C1CCCC(O)=C1C(=O)c1ccc(C(F)(F)F)n(-c2c(F)cccc2F)c1=O` [I-104], the “herbicidal effect, Scirpus juncoides Roxb.” value in assay [1] is 5 (90% or more of herbicidal effect and crop phytotoxicity). For the same compound, in assay [2], the “herbicidal effect, Echinochloa oryzicola Vasing” value is 5 (90% or more of herbicidal effect and crop phytotoxicity). Also, the “herbicidal effect, Monochoria vaginalis” value in assay [3] was 5 (90% or more of herbicidal effect and crop phytotoxicity). Besides, the “herbicidal effect (index), Barnyardgrass” value in assay [4] is 5 (90% or more of herbicidal effect and crop phytotoxicity). The “herbicidal effect (index), Green Foxtail” value in assay [5] was 4 (70 to less than 90% of herbicidal effect and crop phytotoxicity). In addition, the “herbicidal effect (index), Slender Amaranth” value in assay [6] is 5 (90% or more of herbicidal effect and crop phytotoxicity). Moreover, the “herbicidal effect (index), Velvetleaf” value in assay [7] is 5 (90% or more of herbicidal effect and crop phytotoxicity).

`O=C1CCCC(O)=C1C(=O)c1ccc(C(F)(F)F)n(Cc2cccc([N+](=O)[O-])c2)c1=O` [I-116]: the “herbicidal effect, Scirpus juncoides Roxb.” value in assay [1] was 5 (90% or more of herbicidal effect and crop phytotoxicity). Besides, the “herbicidal effect, Echinochloa oryzicola Vasing” value in assay [2] was 5 (90% or more of herbicidal effect and crop phytotoxicity). Further, in assay [3], the “herbicidal effect, Monochoria vaginalis” value is 5 (90% or more of herbicidal effect and crop phytotoxicity). Besides, the “herbicidal effect, Barnyardgrass” value in assay [4] is 5 (90% or more of herbicidal effect and crop phytotoxicity). For the same compound, in assay [5], the “herbicidal effect, Green Foxtail” value is 3 (50 to less than 70% of herbicidal effect and crop phytotoxicity). In addition, in assay [6], the “herbicidal effect, Slender Amaranth” value is 5 (90% or more of herbicidal effect and crop phytotoxicity). The “herbicidal effect, Velvetleaf” value in assay [7] was 5 (90% or more of herbicidal effect and crop phytotoxicity).

For `Cn1nc(C(F)(F)F)c(Cn2c(C(F)(F)F)ccc(C(=O)C3=C(O)CCCC3=O)c2=O)c1OC(F)F` [I-127], the “herbicidal effect, Scirpus juncoides Roxb.” value in assay [1] was 3 (50 to less than 70% of herbicidal effect and crop phytotoxicity). Also, the “herbicidal effect, Echinochloa oryzicola Vasing” value in assay [2] was 4 (70 to less than 90% of herbicidal effect and crop phytotoxicity). Further, the “herbicidal effect, Monochoria vaginalis” value in assay [3] is 4 (70 to less than 90% of herbicidal effect and crop phytotoxicity). Also, the “herbicidal effect, Barnyardgrass” value in assay [4] is 5 (90% or more of herbicidal effect and crop phytotoxicity). Moreover, the “herbicidal effect, Green Foxtail” value in assay [5] is 5 (90% or more of herbicidal effect and crop phytotoxicity). For the same compound, in assay [6], the “herbicidal effect, Slender Amaranth” value is 5 (90% or more of herbicidal effect and crop phytotoxicity). Further, the “herbicidal effect, Velvetleaf” value in assay [7] was 5 (90% or more of herbicidal effect and crop phytotoxicity).
